Laboratory results from patent EP0342577B1, “Use of dihydropyridine derivatives for the prophylaxis or treatment of cerebral circulation disorders” (YOSHITOMI PHARMACEUTICAL INDUSTRIES, LTD., priority 1988, dated 1989).

Experiments:
[1] = tested on: Coronary blood flow amount; experiment: Selectivity in cerebral hyperkinemic action: coronary blood flow amount (electromagnetic flow meter, left coronary artery circumflex ramus); assay type: in vivo; settings: dogs, intravenous; for Coronary blood flow amount ED200: dose at which the rate of increase is 200%
Procedure: (§1) The selectivity in cerebral hyperkinemic action was studied by examining the rates of increase in coronary blood flow amount and cerebral blood flow amount as to various dihydropyridine derivatives.
(§2) Various dihydropyridine derivatives were intravenously administered to dogs (weighing 9 - 16 kg, 4 animals per group) at a dose of 1 - 100 µg/kg body weight. At the lapse of 1, 3, 5, 10, 30, 60, 90 and 120 minutes after the intravenous administration, the coronary blood flow amount and cerebral blood flow amount were measured, and the rates of increase in the blood flow amount were estimated.
Coronary blood flow was measured by equipping the left coronary artery circumflex ramus with the probe of the electromagnetic flow meter, and recorded on the polygraph.
(§3) The ED200 (µg/kg body weight) indicates the dose at which the rate of increase is 200%.

[2] = tested on: Cerebral blood flow amount; experiment: Selectivity in cerebral hyperkinemic action: cerebral blood flow amount (electromagnetic flow meter, left vertebral artery); assay type: in vivo; settings: dogs, intravenous; for Cerebral blood flow amount ED200: dose at which the rate of increase is 200%
Procedure: as §1, §2
(§4) Cerebral blood flow was measured by equipping the left vertebral artery with the probe of the electromagnetic flow meter, and recorded continuously on the polygraph.
as §3

[3] = tested on: Cerebral blood flow amount; experiment: Duration time of cerebral hyperkinemic action: cerebral blood flow with the lapse of time; assay type: in vivo; set-up: unit not given here; settings: dogs, intravenous, 30 µg/kg body weight
Procedure: as §2, §4
By examining the rate of increase in cerebral blood flow by various dihydropyridine derivatives with the lapse of time, the duration of cerebral hyperkinemic action was studied.

[4] = tested on: both common carotid arteries-ligated rats; experiment: Inhibitory effect on symptoms of both common carotid arteries-ligated rats; assay type: in vivo, Spontaneously hypertensive rats (SHR·SR); settings: SHR·SR rats, oral, dose 0.1 mg/kg, given one hour before ligation; neural symptom score 0 (normal) to 4 (death) two hours after skin suture; control (None) 2.8
Procedure: Spontaneously hypertensive rats (SHR·SR; Japan Charles River Co.) were used for the experiment (9-10 rats per group).
The compound 2-2 of the present invention was orally administered forsively to the rats at a dose of 10 ml/kg. To the control group was administered 0.3% Tween® 80 solely at a dose of 10 ml/kg. One hour later, cervical part was incised and both common carotid arteries were ligated with a suture thread almost simultaneously. Two hours after skin suture, observation was made for their neural symptom and/or death. The results are expressed in five-rank scores below.

Structure (SMILES) | Coronary blood flow amount Increase rate (%) ([1]; dose 10 µg/kg body weight) | Coronary blood flow amount Increase rate (%) ([1]; dose 30 µg/kg body weight) | Coronary blood flow amount Increase rate (%) ([1]; dose 100 µg/kg body weight) | Coronary blood flow amount ED200 [1] [µg/kg body weight] | Cerebral blood flow amount Increase rate (%) ([2]; dose 10 µg/kg body weight) | Cerebral blood flow amount Increase rate (%) ([2]; dose 30 µg/kg body weight) | Cerebral blood flow amount Increase rate (%) ([2]; dose 100 µg/kg body weight) | Cerebral blood flow amount ED200 [2] [µg/kg body weight] | Rate of increase in cerebral blood flow amount ([3]; 5 min after administration) | Rate of increase in cerebral blood flow amount ([3]; 10 min after administration) | Rate of increase in cerebral blood flow amount ([3]; 30 min after administration) | Rate of increase in cerebral blood flow amount ([3]; 60 min after administration) | Rate of increase in cerebral blood flow amount ([3]; 120 min after administration) | Average score [4] | Coronary blood flow amount Increase rate (%) ([1]; dose 3 µg/kg body weight) | Cerebral blood flow amount Increase rate (%) ([2]; dose 3 µg/kg body weight) | Coronary blood flow amount Increase rate (%) ([1]; dose 1 µg/kg body weight) | Cerebral blood flow amount Increase rate (%) ([2]; dose 1 µg/kg body weight)
COC(=O)C1=C(C)NC(C)=C(C(=O)OCCc2ccc(N3CCN(C(c4ccccc4)c4ccccc4)CC3)cc2)C1c1cc(C#N)ccn1 (stereo not drawn) [Compound 1-2, 2-[p-(4-Benzhydrylpiperazino)phenyl]ethyl methyl 2,6-dimethyl-4-(4-cyano-2-pyridyl)-1,4-dihydropyridine-3,5-dicarboxylate] | 131 | 156 | 246 | 48 | 186 | 223 | 385 | 15 | 183 | 222 | 190 | 151 | 132 |  |  |  |  | 
COC(=O)C1=C(C)NC(C)=C(C(=O)OCCc2ccc(N3CCN(C(c4ccccc4)c4ccccc4)CC3)cc2)C1c1cccc([N+](=O)[O-])c1 (stereo not drawn) [Compound 2-2, 2-[p-(4-Benzhydrylpiperazino)phenyl]ethyl methyl 2,6-dimethyl-4-(3-nitrophenyl)-1,4-dihydropyridine-3,5-dicarboxylate] | 125 | 174 | 207 | 75 | 197 | 301 | 433 | 11 | 137 | 170 | 285 | 300 | 237 | 1.7 |  |  |  | 
COC(=O)C1=C(C)NC(C)=C(C(=O)OCCN(C)Cc2ccccc2)C1c1cccc([N+](=O)[O-])c1 (stereo not drawn) [Nicardipine, reference compound] | 206 | 240 |  | 9.7 | 197 | 238 |  | 9.7 | 237 | 189 | 129 | 109 |  |  | 154 | 165 |  | 
COCCOC(=O)C1=C(C)NC(C)=C(C(=O)OC(C)C)C1c1cccc([N+](=O)[O-])c1 (stereo not drawn) [Nimodipine, reference compound] | 191 |  |  | 16 | 196 |  |  | 13 | 163 | 152 | 129 | 113 |  |  | 141 | 167 | 125 | 146
